The source of these data is ChEMBL document CHEMBL1201862, “PubChem BioAssay data set” (2004).

Activity calls are given as the source filed them.

Experiment [1] in a line: THP-1 cell cytotoxicity, dose response, cytotoxicity control for Vif-APOBEC3G degradation inhibitor project, THP-1 cells (AID 1117359). As to conditions: Human immunodeficiency virus 1, THP-1. The experiment is classed as functional.
Experiment [2] is described as follows: cytotoxicity in HEK-293T cells, dose response, cytotoxicity control for TCR NF-kB inhibitor project, luminescence, T-cell screen hits (AID 489026).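 Note: cells exposed to compound about 14 hours before the viability readout.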 The experiment is classed as functional, cell-based.
Experiment [3] deals with T1, Voltage-gated N-type calcium channel alpha-1B subunit/Amyloid beta A4 precursor protein-binding family A member 1 (Homo sapiens, UniProt Q00975+Q02410). The experiment is classed as protein assay.
T1 sequence (Q00975 whole entry): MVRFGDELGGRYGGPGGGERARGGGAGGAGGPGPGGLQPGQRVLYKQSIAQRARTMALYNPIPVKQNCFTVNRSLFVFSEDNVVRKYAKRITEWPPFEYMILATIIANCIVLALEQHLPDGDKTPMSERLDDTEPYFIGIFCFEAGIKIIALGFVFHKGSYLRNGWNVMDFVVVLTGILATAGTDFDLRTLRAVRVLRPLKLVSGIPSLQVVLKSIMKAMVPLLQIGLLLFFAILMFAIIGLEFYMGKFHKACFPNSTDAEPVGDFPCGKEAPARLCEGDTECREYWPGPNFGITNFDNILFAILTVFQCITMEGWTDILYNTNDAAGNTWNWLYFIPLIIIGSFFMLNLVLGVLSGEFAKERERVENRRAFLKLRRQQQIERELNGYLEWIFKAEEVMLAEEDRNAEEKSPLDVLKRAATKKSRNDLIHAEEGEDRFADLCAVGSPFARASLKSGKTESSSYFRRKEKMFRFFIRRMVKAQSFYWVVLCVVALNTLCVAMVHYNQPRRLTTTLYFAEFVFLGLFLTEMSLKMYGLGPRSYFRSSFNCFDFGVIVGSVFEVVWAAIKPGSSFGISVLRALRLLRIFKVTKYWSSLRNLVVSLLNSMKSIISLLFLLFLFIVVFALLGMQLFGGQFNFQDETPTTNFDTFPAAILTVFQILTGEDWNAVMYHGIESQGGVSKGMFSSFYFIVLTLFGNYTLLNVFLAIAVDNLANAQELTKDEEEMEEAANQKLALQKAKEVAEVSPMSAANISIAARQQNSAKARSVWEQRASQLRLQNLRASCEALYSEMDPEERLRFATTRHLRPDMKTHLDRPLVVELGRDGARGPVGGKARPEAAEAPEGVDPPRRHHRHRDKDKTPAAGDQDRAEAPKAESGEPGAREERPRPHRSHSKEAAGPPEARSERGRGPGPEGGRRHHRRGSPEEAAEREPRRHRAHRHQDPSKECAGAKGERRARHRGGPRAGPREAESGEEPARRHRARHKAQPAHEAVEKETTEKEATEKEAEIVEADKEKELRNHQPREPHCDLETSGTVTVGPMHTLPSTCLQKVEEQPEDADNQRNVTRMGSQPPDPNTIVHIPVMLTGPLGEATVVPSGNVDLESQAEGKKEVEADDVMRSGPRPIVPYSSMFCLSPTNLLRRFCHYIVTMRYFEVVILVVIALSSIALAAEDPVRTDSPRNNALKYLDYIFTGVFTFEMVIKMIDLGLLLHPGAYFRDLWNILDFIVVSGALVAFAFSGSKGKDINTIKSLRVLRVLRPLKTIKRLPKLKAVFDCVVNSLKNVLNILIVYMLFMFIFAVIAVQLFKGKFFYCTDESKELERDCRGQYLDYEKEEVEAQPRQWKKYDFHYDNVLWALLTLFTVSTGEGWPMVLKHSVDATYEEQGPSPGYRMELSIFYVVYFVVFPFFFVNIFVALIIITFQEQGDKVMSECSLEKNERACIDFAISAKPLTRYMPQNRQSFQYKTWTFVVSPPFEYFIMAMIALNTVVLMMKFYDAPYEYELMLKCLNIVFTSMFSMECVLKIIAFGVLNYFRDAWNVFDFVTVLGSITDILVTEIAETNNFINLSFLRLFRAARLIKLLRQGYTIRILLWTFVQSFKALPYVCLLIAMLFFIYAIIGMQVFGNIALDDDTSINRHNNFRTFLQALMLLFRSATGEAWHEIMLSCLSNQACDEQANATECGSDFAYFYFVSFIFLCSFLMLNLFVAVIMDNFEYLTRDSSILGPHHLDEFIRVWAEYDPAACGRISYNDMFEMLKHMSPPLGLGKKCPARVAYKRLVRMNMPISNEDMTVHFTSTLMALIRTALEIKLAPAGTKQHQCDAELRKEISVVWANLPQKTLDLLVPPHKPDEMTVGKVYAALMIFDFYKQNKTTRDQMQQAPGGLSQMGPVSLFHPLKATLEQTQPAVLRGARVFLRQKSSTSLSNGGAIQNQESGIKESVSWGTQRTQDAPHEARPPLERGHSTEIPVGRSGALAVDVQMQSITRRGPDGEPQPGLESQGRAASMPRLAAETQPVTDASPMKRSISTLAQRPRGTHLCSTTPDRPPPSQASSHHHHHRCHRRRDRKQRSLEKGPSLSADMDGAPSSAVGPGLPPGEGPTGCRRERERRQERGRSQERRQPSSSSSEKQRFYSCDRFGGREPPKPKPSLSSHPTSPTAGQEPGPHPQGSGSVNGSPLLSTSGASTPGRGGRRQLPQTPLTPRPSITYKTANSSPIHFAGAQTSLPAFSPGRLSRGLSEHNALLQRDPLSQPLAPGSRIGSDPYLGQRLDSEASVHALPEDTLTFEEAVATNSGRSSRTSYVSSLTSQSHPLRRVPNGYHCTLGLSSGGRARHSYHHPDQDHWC
T1 sequence (Q02410 whole entry): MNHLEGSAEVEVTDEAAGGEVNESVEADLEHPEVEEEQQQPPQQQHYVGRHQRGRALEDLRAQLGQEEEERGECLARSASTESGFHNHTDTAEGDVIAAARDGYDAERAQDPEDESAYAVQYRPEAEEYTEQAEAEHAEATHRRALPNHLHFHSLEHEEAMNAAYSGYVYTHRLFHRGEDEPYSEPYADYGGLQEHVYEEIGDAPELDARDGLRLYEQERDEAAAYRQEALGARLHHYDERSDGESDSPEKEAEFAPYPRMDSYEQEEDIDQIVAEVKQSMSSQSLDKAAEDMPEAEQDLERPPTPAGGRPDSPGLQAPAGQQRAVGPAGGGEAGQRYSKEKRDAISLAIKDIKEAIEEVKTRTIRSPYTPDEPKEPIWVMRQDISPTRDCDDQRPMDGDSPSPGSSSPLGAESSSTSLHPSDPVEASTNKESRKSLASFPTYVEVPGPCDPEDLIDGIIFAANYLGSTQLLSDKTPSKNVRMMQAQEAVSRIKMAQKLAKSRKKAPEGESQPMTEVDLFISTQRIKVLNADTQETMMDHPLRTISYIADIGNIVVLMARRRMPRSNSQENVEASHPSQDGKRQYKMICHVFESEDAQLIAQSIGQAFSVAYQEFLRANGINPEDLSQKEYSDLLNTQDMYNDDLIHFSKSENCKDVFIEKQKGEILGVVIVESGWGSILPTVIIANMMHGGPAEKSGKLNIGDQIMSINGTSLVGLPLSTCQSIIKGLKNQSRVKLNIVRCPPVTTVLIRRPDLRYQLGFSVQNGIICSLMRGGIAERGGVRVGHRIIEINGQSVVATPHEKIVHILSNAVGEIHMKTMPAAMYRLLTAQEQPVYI
Experiment [4] concerns the target T1, Voltage-gated N-type calcium channel alpha-1B subunit/Amyloid beta A4 precursor protein-binding family A member 1. The experiment is classed as protein assay. The source holds these as a separate data set.
The target in experiment [5] is Voltage-dependent T-type calcium channel subunit alpha-1H (Homo sapiens, UniProt O95180). The experiment is classed as functional.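 Note: channel activity triggered by adding a high calcium stimulation buffer.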
Another experiment can be described thus: cells. The experiment is classed as functional.
The next experiment deals with Genome polyprotein (dengue virus type 2, UniProt P29990). The experiment is described as follows: Dengue-2 NS5 methyltransferase inhibitors, primary screen, biochemical, confirmation dose response (AID 588689). The experiment is classed as functional.
The target of another experiment is T2, Leucine aminopeptidase (Plasmodium falciparum 3D7, UniProt Q8IL11).
T2 sequence (Q8IL11 whole entry): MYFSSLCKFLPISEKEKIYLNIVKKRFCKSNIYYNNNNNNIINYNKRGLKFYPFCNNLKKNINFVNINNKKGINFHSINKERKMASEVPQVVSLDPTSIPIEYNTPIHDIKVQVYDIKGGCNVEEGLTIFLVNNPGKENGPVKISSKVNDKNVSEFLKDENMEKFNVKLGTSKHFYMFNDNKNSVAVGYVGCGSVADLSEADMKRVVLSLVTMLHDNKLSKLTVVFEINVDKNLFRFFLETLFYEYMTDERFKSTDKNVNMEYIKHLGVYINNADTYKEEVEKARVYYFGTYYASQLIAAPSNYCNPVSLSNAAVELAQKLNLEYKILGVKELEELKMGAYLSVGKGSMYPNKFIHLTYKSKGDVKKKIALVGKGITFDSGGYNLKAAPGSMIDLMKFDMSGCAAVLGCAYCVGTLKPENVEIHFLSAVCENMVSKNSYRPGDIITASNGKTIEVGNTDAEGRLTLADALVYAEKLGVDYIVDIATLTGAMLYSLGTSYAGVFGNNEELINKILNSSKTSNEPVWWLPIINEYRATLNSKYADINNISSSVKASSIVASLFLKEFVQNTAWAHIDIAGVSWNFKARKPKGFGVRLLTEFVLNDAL
The experiment is described as follows: P. falciparum M17LAP inhibitors, primary screen, biochemical, fluorogenic H-Leu-NHMec substrate, 1536-well (AID 1619). The experiment is classed as functional.

Experiment [6] can be described thus: cytotoxicity in HEK-293T cells, dose response, cytotoxicity control for BCR NF-kB inhibitor project, luminescence, B-cell screen hits (AID 489021).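 Note: HEK-293T cells carrying an NF-kB luciferase reporter; cells exposed to compound for about 14 hours before viability readout.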 The experiment is classed as functional, cell-based.
The target in experiment [7] is T3, RNA-binding protein pos-1 (Caenorhabditis elegans, UniProt G5EF15).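 Note: purified POS-1 fused to maltose binding protein made in E. coli; potency of compounds blocking POS-1 binding to fluorescent RNA.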
T3 sequence (G5EF15 whole entry): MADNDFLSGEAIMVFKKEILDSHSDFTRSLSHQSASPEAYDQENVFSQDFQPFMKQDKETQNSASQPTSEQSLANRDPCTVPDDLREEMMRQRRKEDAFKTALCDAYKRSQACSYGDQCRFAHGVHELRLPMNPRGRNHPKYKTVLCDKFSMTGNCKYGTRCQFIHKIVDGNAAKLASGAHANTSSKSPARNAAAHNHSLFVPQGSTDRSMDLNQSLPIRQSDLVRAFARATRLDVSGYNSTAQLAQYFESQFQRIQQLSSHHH
The experiment is described as follows: inhibitors of POS-1/mex-3 RNA binding, dose response, biochemical, fluorescence polarization (AID 1964). (Polarisation of emitted light reports the rotation of a fluorescent probe.)

The target in experiment [8] is T4, Polyadenylate-binding protein 1 (Homo sapiens, UniProt P11940). The experiment is described as follows: PABP1 MLLE–PAM2 interaction inhibitors, dose response, miRNA deadenylation inhibitor project, biochemical, fluorescence polarization, Cy5-PAM2 peptide, secondary (AID 602260). The conditions noted are these: read-out: IC50_Mean. The experiment is classed as functional.
T4 sequence (P11940 whole entry): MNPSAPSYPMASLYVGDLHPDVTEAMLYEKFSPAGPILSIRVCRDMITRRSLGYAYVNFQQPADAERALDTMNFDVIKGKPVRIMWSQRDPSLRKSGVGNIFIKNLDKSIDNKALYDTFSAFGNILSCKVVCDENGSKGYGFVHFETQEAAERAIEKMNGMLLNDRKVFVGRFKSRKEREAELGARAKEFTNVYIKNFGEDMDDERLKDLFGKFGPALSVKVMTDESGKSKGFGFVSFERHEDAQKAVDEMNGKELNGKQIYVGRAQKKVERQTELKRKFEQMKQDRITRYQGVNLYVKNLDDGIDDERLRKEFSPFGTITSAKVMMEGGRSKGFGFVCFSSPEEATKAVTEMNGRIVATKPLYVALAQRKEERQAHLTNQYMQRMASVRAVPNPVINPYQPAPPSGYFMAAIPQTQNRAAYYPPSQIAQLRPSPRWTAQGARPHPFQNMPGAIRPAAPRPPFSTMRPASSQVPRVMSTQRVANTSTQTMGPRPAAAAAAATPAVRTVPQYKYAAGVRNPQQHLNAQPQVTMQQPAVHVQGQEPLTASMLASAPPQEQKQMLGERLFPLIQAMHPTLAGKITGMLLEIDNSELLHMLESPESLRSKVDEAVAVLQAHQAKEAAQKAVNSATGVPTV

In experiment [9] the target is T5, Zinc finger protein mex-5 (Caenorhabditis elegans, UniProt Q9XUB2).
T5 sequence (Q9XUB2 whole entry): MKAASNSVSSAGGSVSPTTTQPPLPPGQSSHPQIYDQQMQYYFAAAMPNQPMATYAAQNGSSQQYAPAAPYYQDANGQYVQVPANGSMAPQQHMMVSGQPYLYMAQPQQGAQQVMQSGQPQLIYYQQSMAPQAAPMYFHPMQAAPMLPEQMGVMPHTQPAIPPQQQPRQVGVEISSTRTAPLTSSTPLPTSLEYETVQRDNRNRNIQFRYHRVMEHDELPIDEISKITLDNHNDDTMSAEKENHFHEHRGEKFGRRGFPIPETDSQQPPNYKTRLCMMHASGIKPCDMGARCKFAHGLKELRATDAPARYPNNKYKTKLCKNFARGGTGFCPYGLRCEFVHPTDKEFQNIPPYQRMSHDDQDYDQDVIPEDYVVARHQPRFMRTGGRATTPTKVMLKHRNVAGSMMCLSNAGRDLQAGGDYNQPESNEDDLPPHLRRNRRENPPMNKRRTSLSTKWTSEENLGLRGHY
The experiment is described as follows: MEX-5/TCR-2 RNA interaction inhibitors, dose response, biochemical, C. elegans, fluorescence polarization (AID 1960).

Experiment [10] concerns the target T4, Polyadenylate-binding protein 1. The experiment can be described thus: PABP1 MLLE–PAM2 binding inhibitor potency, dose response, biochemical, fluorescence polarization, FITC-PAM2 peptide (AID 602259). The experiment is classed as functional. The conditions noted are these: read-out: IC50_Mean.
In experiment [11] the target is T6, Histone-lysine N-methyltransferase NSD2 (Homo sapiens, UniProt O96028).
T6 sequence (O96028 whole entry): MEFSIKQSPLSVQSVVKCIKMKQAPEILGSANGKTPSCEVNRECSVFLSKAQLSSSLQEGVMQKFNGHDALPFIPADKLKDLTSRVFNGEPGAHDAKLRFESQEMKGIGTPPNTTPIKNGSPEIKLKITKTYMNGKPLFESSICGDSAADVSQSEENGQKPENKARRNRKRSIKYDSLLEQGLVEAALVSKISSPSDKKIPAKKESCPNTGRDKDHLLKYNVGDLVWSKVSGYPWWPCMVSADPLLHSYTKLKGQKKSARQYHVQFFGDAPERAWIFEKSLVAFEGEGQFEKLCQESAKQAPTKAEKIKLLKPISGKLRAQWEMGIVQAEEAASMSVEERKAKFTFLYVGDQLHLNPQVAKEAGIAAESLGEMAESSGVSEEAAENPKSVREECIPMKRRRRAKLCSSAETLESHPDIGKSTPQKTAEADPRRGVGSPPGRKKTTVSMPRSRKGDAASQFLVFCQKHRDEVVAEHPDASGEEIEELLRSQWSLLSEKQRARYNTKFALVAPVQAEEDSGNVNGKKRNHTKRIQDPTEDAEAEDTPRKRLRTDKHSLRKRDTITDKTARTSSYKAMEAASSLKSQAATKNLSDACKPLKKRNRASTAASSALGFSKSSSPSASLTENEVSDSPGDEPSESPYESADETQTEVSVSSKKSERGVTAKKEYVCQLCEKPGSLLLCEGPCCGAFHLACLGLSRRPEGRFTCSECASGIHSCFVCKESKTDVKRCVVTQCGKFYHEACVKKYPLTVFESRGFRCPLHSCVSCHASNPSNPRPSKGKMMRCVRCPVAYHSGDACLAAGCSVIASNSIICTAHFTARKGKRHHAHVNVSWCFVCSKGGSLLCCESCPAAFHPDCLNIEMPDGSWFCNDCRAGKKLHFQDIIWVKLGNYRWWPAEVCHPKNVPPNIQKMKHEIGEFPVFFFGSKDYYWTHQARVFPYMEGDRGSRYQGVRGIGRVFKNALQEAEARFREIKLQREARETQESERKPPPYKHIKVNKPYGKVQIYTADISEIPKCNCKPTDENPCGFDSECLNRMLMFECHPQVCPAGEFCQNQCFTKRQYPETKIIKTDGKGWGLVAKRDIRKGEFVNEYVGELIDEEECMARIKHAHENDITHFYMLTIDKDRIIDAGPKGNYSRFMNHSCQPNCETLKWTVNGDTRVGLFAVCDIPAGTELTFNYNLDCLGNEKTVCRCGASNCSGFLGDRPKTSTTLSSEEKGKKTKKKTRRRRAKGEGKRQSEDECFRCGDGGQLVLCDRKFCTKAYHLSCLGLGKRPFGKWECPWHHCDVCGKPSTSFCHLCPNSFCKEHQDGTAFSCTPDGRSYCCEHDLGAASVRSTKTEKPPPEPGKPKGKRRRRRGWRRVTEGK
The experiment is classed as biochemical.

The target of experiment [12] is FAD-linked sulfhydryl oxidase ALR (Homo sapiens, UniProt P55789). The experiment is described as follows: inhibitors of human ALR sulfhydryl oxidase, dose response, biochemical, H2O2 detection, luminescence, cherry-pick (AID 493248).
Sequence of FAD-linked sulfhydryl oxidase ALR (P55789 whole entry): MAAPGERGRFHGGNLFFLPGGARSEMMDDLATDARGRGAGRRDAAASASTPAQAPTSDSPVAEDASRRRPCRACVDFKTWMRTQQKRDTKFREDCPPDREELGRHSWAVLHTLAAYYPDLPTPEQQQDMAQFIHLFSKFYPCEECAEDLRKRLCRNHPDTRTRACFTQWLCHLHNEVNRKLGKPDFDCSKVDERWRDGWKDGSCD
Another experiment has as its target Large T antigen (Simian virus 40, UniProt P03070). The experiment is classed as functional, Betapolyomavirus macacae.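 Note: Confirmatory-stage PubChem screen for compounds that inhibit SV40 T antigen.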
Experiment [13] can be described thus: inhibitors of SNCA 5'UTR-driven reporter translation, confirmation, H4 neuroglioma cells, luminescence (AID 1988). The experiment is classed as functional, cell-based.
Experiment [14] in a line: Luminescence Cell-Based Dose Response HTS to Identify Inhibitors of 5'UTR Stem-Loop Driven Prion Protein mRNA Translation in H4 Neuroglioblastoma Cells. [Related pubchem assays: 1827 (Project Summary), 1813 (Primary HTS)]. The experiment is classed as functional.
A short description of experiment [15]: inhibitors of firefly luciferase expression or activity, dose response, H4 neuroglioma cells, luminescence (AID 1990). The experiment is classed as functional, cell-based.

Sequence of Large T antigen (P03070 whole entry): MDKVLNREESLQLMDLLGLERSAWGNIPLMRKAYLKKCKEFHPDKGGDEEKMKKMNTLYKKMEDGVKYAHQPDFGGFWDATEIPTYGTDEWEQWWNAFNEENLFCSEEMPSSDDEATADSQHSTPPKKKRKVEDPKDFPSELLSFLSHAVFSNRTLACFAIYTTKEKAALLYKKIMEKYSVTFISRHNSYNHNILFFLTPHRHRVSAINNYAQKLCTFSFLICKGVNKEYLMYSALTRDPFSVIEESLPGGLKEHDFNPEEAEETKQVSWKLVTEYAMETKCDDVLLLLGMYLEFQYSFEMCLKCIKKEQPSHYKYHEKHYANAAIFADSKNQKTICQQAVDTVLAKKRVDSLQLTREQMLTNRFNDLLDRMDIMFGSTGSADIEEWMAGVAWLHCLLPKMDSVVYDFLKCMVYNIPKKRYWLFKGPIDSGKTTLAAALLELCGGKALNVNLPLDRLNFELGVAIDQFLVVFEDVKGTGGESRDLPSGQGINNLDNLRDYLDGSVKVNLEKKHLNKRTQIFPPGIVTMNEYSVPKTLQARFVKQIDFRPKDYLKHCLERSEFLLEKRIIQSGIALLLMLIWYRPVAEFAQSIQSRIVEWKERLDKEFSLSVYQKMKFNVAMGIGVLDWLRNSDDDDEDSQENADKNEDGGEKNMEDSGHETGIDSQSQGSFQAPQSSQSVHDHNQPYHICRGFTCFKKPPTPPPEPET

In the case of `Cc1nn(-c2c(Cl)cc(Cl)cc2Cl)c(=O)c2ccccc12`, the CC50 (as a rule, the concentration that lowers cell viability or growth by half) in experiment [1] was 30.1 µM (active).
On to `CCOC(=O)c1[nH]c(C)c(C(=O)Nc2ccc(C)cc2C)c1C`, for which the IC50 in experiment [2] is > 80 µM (inactive).
Take `NS(=O)(=O)c1ccc(-c2ccc(C=C3C(=O)c4ccccc4C3=O)o2)cc1`: the IC50 in experiment [3] was > 56.8 µM (not active); in [4], > 50 µM (inactive).
Regarding `O=C(CCNc1ccc(Cl)c(C(F)(F)F)c1)c1ccco1`, in [5], the EC50 (usually the midpoint of the concentration-response curve) is 9.96 µM (active). In the experiment “cells”, the IC50 is 31 µM (active).
Consider `Cc1sc(NC(=O)C2CCCCC2C(=O)O)c(C(N)=O)c1-c1ccc(C(C)C)cc1` (stereo not given), for which the IC50 is 62.7 µM (active) at Genome polyprotein and 7.2 µM (active) at Leucine aminopeptidase.
Turning to `CCOc1ccc(NC(=O)CN2C(=O)CSC(C)C2=O)cc1` (stereo not given), at Leucine aminopeptidase, the IC50 was 1.21 µM (active).
As to `CCc1ccc(/C=C2/SC(=S)N(CCC(=O)Nc3cccc(C(=O)O)c3)C2=O)cc1`, in experiment [6], the IC50 was > 80 µM (inactive).
Consider `O=C(NC(=S)NNS(=O)(=O)c1ccccc1)c1cccnc1`, for which the EC50 in experiment [7] and in experiment [9] was > 300 µM (not active) throughout. The figures for the IC50 (in [8]; on Leucine aminopeptidase; in [10]) were > 66 µM (inactive), 43.9 µM (active) and > 66 µM (inactive), respectively.
On to `CCOc1ccc(N(C)S(=O)(=O)c2ccc(-c3cc(C)no3)s2)cc1`, for which the IC50 in experiment [2] was > 80 µM (inactive).
`O=C(Nc1nncs1)c1ccccc1Br`: at Leucine aminopeptidase, the IC50 was 16 µM (active).
For `COc1ccc(/C=N/N=C2\SC(CC(=O)O)C(=O)N2c2ccccc2)c(OC)c1` (stereo not given), the IC50 on Leucine aminopeptidase is 95.3 µM (active).
Turning to `CNCCOc1ccccc1-c1ccccc1`, in [11], the AC50 (usually the concentration at which the activity in the assay is half-maximal) is > 20 µM (inactive).
With `CC(=O)Oc1ccc(-c2ccc(C(=O)NCCc3ccc(S(N)(=O)=O)cc3)cc2)cc1`, the IC50 in experiment [3] was 11.4 µM (active); in [4], > 50 µM (inactive).
For the molecule `CCCC(C(=O)NC1CCCC1)N(C(=O)Cn1nnc(-c2ccc(C)o2)n1)C1CCCC1` (stereo not given), the figures for the IC50 in experiment [3] and in experiment [4] were 0.221 µM (active) and 45 µM (active), respectively.
For the molecule `Cc1ccc2nc(O)c(CN(Cc3ccco3)C(=O)c3ccncc3)cc2c1`, the CC50 in experiment [1] is 13.5 µM (active).
Regarding `COc1ccc(CC(=O)Nc2cccc(-c3ccc4nnc(C)n4n3)c2)cc1`, the IC50 in experiment [6] is > 80 µM (inactive).
For the molecule `C/C(CC(=O)Nc1ccc2ccccc2c1)=N\NC(=O)c1ccc(O)c(O)c1`, the AC50 in experiment [12] was 4.3 µM (active); in [11], 9.2 µM (active). The IC50 at Large T antigen was 14 µM (active).
For the molecule `O=C(CCCOc1ccccc1)N1CCN(c2ccc(F)cc2)CC1`, the EC50 in experiment [5] was 4.49 µM (active).
Take `Cc1[nH]c2ccccc2c1C(=O)CN1C(=O)NC2(CC(C)CC(C)(C)C2)C1=O` (stereo not given): the EC50 was 10.8 µM (active) in experiment [13], 22.3 µM (active) in experiment [14] and 11.4 µM (active) in experiment [15]. Besides, the IC50 in experiment [6] was 52.8 µM (inactive).
`Clc1cccc(Cl)c1OCCOCCNCc1ccccc1`: the IC50 in [2] is > 80 µM (inactive).
For the molecule `Cc1cc2oc(C(=O)Nc3ccc(S(N)(=O)=O)cc3)c(C)c2cc1Cl`, the IC50 in [3] was 6.72 µM (active); in experiment [4] it was > 50 µM (inactive).
Turning to `COc1ccc(S(=O)(=O)N2CCC(C(=O)N3CCc4ccccc4C3)CC2)cc1C`, the EC50 in [5] was 4.51 µM (active).
For the molecule `CCN(CC)CCC/N=C(\C)C1=C(O)c2ccccc2C1=O`, the AC50 in [11] is > 20 µM (inactive).
Consider `COc1ccc([N+](=O)[O-])cc1CSc1nnc(NC(C)=O)s1`, for which the CC50 in experiment [1] was > 40 µM (active).
With `Cc1cc(C)cc(N(CC(=O)NCc2ccc3c(c2)OCO3)C(=O)CCC(=O)Nc2ccccn2)c1`, the EC50 in experiment [5] is 2.74 µM (active).
